Measured values as given in US20240150360A1 (THE REGENTS OF THE UNIVERSITY OF MICHIGAN, priority 2021, published 2024).
Like-named read-outs stand apart in the source and are kept apart here.

How the values were obtained:
22Rv1 cells = assay: Cell growth inhibition assay (CellTiter-Glo) in 22Rv1; assay type: cell-based, human; details: Homo sapiens, 22Rv1, 96 h, read-out: Cell Growth Inhibition (IC50) 22Rv1
Procedure: Biological Assays. CBP/p300 degradation activity and cell growth inhibition were evaluated in the human prostate cancer cell line 22Rv1 (ATCC© CRL-2505™) purchased from the American Type Culture Collection (ATCC), Manassas, VA, and maintained and cultured in Dulbecco's Modified Eagle's medium (DMEM) containing 10% fetal bovine serum, 1 unit/ml of penicillin and 1 μg/ml of streptomycin. Cells with 3-8 passages after purchase were used in experiments.
Cell Growth Inhibition Assay Protocol. 22RV1 cells were seeded at a concentration of 4000 cells/well in 100 μl culture medium and 2 μl of test compound (final concentration start from 10 μM and 3 times dilution) into 96 well microplates (Corning 3903). The cell cultures were incubated for 96 h at +37° C. and 5% CO2. The plate and its contents were equilibrated to room temperature for approximately 30 minutes. 100 μl of CellTiter-Glo® 2.0 Reagent equal to the volume of cell culture medium present was added in each well. The contents were mixed for 2 minutes on an orbital shaker. The plate was allowed to incubate at room temperature for 10 minutes. The luminescence was recorded. The data was analyzed by Prism GraphPad 8.

CBP = biological target: T1, CBP (Homo sapiens, UniProt Q92793); assay: CBP degradation in 22Rv1 cells (5 h); assay type: cell-based; details: 22Rv1 cells, 5 h; for Dmax: 22Rv1, 5 h, read-out: CBP Degradation (22Rv1, 5 h) DCmax
T1 construct: endogenous in cells; host or cells: 22Rv1 (ATCC CRL-2505) human prostate cancer cells
Description: (§1) Biological Assays. […] Cells with 3-8 passages after purchase were used in experiments.

HL60 = assay: Cell growth inhibition in HL60; assay type: cell-based; details: Homo sapiens
P300 = biological target: T2, P300 (Homo sapiens, UniProt Q09472); assay: P300 degradation in 22Rv1 cells (5 h); assay type: cell-based; details: 22Rv1 cells, 5 h; for Dmax: read-out: P300 Degradation (22Rv1, 5 h) DCmax
T2 construct: endogenous in cells; host or cells: 22Rv1 (ATCC CRL-2505) human prostate cancer cells
Description: as §1

[1] = HL-60, read-out: Cell Growth Inhibition (IC50) HL60

T2 sequence (Q09472 whole entry): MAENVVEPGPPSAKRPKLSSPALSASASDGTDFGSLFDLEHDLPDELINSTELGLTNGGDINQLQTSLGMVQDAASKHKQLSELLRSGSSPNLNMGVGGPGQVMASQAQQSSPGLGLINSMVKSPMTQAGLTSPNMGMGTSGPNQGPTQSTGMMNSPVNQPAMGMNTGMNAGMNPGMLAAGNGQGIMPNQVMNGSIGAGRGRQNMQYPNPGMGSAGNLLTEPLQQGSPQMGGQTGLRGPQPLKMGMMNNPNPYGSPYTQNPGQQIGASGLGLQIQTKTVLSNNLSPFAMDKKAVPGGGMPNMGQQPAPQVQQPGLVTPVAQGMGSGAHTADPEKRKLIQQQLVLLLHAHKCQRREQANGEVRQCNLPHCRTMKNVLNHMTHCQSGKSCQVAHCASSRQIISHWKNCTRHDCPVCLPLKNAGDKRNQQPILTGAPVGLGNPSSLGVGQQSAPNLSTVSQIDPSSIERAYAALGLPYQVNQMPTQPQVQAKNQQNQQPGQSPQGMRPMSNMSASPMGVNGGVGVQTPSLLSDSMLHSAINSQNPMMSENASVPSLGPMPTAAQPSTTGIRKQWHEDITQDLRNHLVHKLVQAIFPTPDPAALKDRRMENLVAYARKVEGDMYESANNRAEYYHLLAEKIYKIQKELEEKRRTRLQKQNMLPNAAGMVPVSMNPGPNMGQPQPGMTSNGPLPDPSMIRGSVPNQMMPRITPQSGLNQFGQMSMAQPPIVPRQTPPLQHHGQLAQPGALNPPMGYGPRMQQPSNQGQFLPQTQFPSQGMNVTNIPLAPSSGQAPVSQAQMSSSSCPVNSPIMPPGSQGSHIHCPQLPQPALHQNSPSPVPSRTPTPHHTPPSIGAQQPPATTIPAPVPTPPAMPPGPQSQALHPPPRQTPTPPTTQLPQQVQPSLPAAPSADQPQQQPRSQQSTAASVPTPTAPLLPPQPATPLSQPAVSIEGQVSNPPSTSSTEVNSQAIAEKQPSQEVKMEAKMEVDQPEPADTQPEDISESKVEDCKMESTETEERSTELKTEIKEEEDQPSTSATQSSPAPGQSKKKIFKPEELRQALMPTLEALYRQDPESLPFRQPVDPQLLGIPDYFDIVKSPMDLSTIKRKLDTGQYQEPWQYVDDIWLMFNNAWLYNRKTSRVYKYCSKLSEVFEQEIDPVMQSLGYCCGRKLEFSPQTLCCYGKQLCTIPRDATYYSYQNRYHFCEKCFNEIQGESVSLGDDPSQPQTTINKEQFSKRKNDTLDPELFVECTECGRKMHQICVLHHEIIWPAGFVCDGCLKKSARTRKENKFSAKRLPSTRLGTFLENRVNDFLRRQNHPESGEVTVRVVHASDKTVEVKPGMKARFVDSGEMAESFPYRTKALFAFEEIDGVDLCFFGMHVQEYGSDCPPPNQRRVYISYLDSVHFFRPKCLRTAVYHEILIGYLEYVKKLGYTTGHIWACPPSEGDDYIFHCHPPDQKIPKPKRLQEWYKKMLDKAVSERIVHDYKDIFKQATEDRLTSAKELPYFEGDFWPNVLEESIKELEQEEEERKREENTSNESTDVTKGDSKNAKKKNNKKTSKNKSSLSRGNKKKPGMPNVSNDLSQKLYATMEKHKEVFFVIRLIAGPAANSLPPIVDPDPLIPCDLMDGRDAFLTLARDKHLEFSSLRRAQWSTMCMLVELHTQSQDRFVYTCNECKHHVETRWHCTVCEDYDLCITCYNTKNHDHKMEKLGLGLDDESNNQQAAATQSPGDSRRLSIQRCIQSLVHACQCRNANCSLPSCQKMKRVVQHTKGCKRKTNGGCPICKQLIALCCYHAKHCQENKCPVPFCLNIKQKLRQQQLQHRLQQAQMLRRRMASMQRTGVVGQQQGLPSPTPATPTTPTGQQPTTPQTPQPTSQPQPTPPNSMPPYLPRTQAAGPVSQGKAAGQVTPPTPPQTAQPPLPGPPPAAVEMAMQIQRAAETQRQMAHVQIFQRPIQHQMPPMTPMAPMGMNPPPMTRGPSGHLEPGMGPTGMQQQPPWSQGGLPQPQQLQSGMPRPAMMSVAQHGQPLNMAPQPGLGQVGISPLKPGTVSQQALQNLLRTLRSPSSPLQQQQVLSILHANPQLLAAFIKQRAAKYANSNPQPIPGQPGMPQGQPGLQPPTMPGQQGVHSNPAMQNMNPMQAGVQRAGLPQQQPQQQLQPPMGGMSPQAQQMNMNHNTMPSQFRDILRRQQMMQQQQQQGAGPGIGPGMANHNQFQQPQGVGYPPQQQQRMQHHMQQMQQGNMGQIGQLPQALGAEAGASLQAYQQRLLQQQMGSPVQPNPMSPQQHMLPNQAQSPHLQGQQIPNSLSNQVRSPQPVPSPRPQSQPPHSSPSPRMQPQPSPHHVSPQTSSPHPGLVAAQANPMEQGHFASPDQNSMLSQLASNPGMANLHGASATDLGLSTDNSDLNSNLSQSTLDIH
T1 sequence (Q92793 whole entry): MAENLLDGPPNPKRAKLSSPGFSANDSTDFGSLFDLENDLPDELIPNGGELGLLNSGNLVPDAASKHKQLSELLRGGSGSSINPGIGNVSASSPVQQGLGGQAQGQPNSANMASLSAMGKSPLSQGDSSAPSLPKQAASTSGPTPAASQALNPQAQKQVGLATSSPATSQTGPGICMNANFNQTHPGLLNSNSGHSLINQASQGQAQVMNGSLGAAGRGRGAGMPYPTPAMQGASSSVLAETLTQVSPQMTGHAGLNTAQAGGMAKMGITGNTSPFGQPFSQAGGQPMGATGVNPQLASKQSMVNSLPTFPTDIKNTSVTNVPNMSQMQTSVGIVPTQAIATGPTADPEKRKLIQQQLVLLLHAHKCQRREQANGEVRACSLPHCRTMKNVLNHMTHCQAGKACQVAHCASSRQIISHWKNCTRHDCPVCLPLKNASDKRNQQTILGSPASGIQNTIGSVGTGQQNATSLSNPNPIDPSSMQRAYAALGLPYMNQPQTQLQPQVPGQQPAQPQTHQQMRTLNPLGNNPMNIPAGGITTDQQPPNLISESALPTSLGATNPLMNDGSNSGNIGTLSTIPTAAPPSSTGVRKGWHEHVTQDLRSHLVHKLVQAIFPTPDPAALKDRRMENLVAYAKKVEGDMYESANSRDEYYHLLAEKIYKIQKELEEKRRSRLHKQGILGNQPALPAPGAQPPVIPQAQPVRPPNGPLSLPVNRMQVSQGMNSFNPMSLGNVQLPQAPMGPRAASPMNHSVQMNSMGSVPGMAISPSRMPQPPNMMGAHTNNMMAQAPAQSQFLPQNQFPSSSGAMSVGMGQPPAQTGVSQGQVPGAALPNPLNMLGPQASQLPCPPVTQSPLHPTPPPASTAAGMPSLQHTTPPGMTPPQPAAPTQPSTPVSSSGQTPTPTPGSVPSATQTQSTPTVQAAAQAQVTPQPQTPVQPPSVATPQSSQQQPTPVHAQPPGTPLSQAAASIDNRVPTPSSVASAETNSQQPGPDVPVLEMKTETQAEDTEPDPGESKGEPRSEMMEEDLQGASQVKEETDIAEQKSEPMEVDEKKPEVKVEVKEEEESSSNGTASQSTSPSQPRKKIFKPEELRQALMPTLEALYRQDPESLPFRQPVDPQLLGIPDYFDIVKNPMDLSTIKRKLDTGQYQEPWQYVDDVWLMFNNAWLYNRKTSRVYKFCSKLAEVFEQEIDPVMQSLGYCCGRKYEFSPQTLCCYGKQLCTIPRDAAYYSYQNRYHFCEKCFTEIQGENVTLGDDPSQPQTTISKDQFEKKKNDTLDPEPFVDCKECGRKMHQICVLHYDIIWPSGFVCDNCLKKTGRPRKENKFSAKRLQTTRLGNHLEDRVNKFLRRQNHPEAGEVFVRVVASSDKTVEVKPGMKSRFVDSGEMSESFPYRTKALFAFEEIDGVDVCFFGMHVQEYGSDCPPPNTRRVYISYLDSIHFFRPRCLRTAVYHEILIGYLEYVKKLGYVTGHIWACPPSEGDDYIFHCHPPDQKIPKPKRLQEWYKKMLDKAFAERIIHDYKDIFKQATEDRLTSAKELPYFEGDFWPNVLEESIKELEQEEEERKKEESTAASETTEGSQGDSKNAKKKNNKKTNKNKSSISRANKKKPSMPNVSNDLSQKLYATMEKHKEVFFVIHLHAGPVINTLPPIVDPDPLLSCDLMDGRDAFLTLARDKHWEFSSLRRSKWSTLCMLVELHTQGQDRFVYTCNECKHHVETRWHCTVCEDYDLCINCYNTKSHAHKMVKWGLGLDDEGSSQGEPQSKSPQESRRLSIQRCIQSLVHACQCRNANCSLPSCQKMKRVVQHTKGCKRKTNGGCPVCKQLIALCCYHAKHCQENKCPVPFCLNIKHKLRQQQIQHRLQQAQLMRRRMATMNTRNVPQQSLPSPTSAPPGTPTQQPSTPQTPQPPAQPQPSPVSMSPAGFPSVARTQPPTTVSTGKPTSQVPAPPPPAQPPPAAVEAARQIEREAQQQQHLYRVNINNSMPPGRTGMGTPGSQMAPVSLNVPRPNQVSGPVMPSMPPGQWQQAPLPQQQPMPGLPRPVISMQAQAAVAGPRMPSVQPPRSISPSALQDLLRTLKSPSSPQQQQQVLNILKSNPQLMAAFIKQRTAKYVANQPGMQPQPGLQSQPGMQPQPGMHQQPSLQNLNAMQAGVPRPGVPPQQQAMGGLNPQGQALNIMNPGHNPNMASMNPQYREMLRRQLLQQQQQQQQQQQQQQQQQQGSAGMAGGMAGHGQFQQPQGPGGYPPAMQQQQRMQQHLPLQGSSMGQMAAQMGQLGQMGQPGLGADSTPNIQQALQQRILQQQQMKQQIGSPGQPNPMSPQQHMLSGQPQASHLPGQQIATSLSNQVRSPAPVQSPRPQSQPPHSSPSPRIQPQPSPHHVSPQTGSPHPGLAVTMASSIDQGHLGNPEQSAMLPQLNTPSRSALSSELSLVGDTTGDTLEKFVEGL

| Compound | Dmax (CBP) | DC50 (CBP) | IC50 (22Rv1 cells) | IC50 (HL60; [1]) | DC50 (P300) | Dmax (P300) | further results |
| --- | --- | --- | --- | --- | --- | --- | --- |
| CC(=O)N1CCc2c(c(N3CCCc4cc(-c5cnn(C)c5)c(C(F)F)cc43)nn2C[C@H]2CC[C@H](C(=O)N3Cc4cc5c(cc4C3)C(=O)N(C3CCC(=O)NC3=O)C5=O)CC2)C1 (stereo partly drawn) [CP-029, trans-6-(4-((5-acetyl-3-(7-(difluoromethyl)-6-(1-methyl-1H-pyrazol-4-yl)-3,4-dihydroquinolin-1(2H)-yl)-4,5,6,7-tetrahydro-1H-pyrazolo[4,3-c]pyridin-1-yl)methyl)cylcohexane-1-carbonyl)-2-(2,6-dioxopiperidin-3-yl)-6,7-dihydropyrrolo[3,4-f]isoindole-1,3(2H,5H)-dione] | > 50% | < 100 nM | – | – | – | – | IC50 (22Rv1 cells; 22Rv1 cells, 96 h incubation): < 10000 nM; IC50 (HL60; HL-60, HL60 cells, read-out: Cell Growth Inhibition (IC50) HL60): < 10000 nM |
| CC(=O)N1CCc2c(c(N3CCCc4cc(-c5cnn(C)c5)c(C(F)F)cc43)nn2[C@H]2CC[C@H](CN3Cc4cc5c(cc4C3)C(=O)N(C3CCC(=O)NC3=O)C5=O)CC2)C1 (stereo partly drawn) [CP-047, 6-((4-(5-acetyl-3-(7-(difluoromethyl)-6-(1-methyl-1H-pyrazol-4-yl)-3,4-dihydroquinolin-1(2H)-yl)-4,5,6,7-tetrahydro-1H-pyrazolo[4,3-c]pyridin-1-yl)cyclohexyl)methyl)-2-(2,6-dioxopiperidin-3-yl)-6,7-dihydropyrrolo[3,4-f]isoindole-1,3(2H,5H)-dione] | – | – | < 100 nM | < 100 nM | – | – | – |
| CC(=O)N1CCc2c(c(N3CCCc4cc(-c5cnn(C)c5)c(C(F)F)cc43)nn2C2CCC(N3CCc4ccc5c(c4C3)C(=O)N(C3CCC(=O)NC3=O)C5=O)CC2)C1 (stereo not drawn) [CP-087, 8-((1r,4r)-4-(5-acetyl-3-(7-(difluoromethyl)-6-(1-methyl-1H-pyrazol-4-yl)-3,4-dihydroquinolin-1(2H)-yl)-4,5,6,7-tetrahydro-1H-pyrazolo[4,3-c]pyridin-1-yl)cyclohexyl)-2-(2,6-dioxopiperidin-3-yl)-6,7,8,9-tetrahydro-1H-pyrrolo[3,4-h]isoquinoline-1,3(2H)-dione] | < 50% | > 1000 nM | – | – | > 1000 nM | < 50% | – |
| CC(=O)N1CCc2c(c(N3CCCc4cc(-c5cnn(C)c5)c(C(F)F)cc43)nn2C[C@H]2CC[C@@H](N3Cc4cc5c(cc4C3)C(=O)N(C3CCC(=O)NC3=O)C5=O)CC2)C1 (stereo partly drawn) [CP-040, 6-(4-((5-acetyl-3-(7-(difluoromethyl)-6-(1-methyl-1H-pyrazol-4-yl)-3,4-dihydroquinolin-1(2H)-yl)-4,5,6,7-tetrahydro-1H-pyrazolo[4,3-c]pyridin-1-yl)methyl)cyclohexyl)-2-(2,6-dioxopiperidin-3-yl)-6,7-dihydropyrrolo[3,4-f]isoindole-1,3(2H,5H)-dione] | – | – | < 1000 nM | < 100 nM | – | – | – |
| CC(=O)N1CCc2c(c(N3CCCc4cc(-c5cnn(C)c5)c(C(F)F)cc43)nn2C2CCN(C(=O)CN3Cc4cc5c(cc4C3)C(=O)N(C3CCC(=O)NC3=O)C5=O)CC2)C1 (stereo not drawn) [CP-005, 6-(2-(4-(5-acetyl-3-(7-(difluoromethyl)-6-(1-methyl-1H-pyrazol-4-yl)-3,4-dihydroquinolin-1(2H)-yl)-4,5,6,7-tetrahydro-1H-pyrazolo[4,3-c]pyridin-1-yl)piperidin-1-yl)-2-oxoethyl)-2-(2,6-dioxopiperidin-3-yl)-6,7-dihydropyrrolo[3,4-f]isoindole-1,3(2H,5H)-dione] | – | – | < 100 nM | < 100 nM | – | – | – |
| CC(=O)N1CCc2c(c(N3CCCc4cc(-c5cnn(C)c5)c(C(F)F)cc43)nn2[C@H]2CC[C@H](CN3CCc4ccc5c(c4C3)C(=O)N(C3CCC(=O)NC3=O)C5=O)CC2)C1 (stereo partly drawn) [CP-089, 8-(((1r,4r)-4-(5-acetyl-3-(7-(difluoromethyl)-6-(1-methyl-1H-pyrazol-4-yl)-3,4-dihydroquinolin-1(2H)-yl)-4,5,6,7-tetrahydro-1H-pyrazolo[4,3-c]pyridin-1-yl)cyclohexyl)methyl)-2-(2,6-dioxopiperidin-3-yl)-6,7,8,9-tetrahydro-1H-pyrrolo[3,4-h]isoquinoline-1,3(2H)-dione] | < 50% | > 1000 nM | – | – | > 1000 nM | < 50% | – |
| CC(=O)N1CCc2c(c(N3CCCc4cc(-c5cnn(C)c5)c(C(F)F)cc43)nn2[C@H]2CC[C@@H](CN3Cc4cc5c(cc4C3)C(=O)N(C3CCC(=O)NC3=O)C5=O)CC2)C1 (relative stereo) [CP-046, 6-((4-(5-acetyl-3-(7-(difluoromethyl)-6-(1-methyl-1H-pyrazol-4-yl)-3,4-dihydroquinolin-1(2H)-yl)-4,5,6,7-tetrahydro-1H-pyrazolo[4,3-c]pyridin-1-yl)cyclohexyl)methyl)-2-(2,6-dioxopiperidin-3-yl)-6,7-dihydropyrrolo[3,4-f]isoindole-1,3(2H,5H)-dione] | – | – | < 100 nM | < 100 nM | – | – | – |
| CC(=O)N1CCc2c(c(N3CCCc4cc(-c5cnn(C)c5)c(C(F)F)cc43)nn2[C@H]2CC[C@H](CN3CC4(Cc5cc6c(cc5C4)C(=O)N(C4CCC(=O)NC4=O)C6=O)C3)CC2)C1 (stereo partly drawn) [CP-088, 1-(((1r,4r)-4-(5-acetyl-3-(7-(difluoromethyl)-6-(1-methyl-1H-pyrazol-4-yl)-3,4-dihydroquinolin-1(2H)-yl)-4,5,6,7-tetrahydro-1H-pyrazolo[4,3-c]pyridin-1-yl)cyclohexyl)methyl)-2′-(2,6-dioxopiperidin-3-yl)-5′,7′-dihydro-1′H-spiro[azetidine-3,6′-cyclopenta[f]isoindole]-1′,3′(2′H)-dione] | > 70% | < 10 nM | – | – | < 10 nM | > 70% | – |
| CC(=O)N1CCc2c(c(N3CCCc4cc(-c5cnn(C)c5)c(C(F)F)cc43)nn2C[C@H]2CC[C@H](CN3Cc4cc5c(cc4C3)C(=O)N(C3CCC(=O)NC3=O)C5=O)CC2)C1 (stereo partly drawn) [CP-043, 6-((4-((5-acetyl-3-(7-(difluoromethyl)-6-(1-methyl-1H-pyrazol-4-yl)-3,4-dihydroquinolin-1(2H)-yl)-4,5,6,7-tetrahydro-1H-pyrazolo[4,3-c]pyridin-1-yl)methyl)cyclohexyl)methyl)-2-(2,6-dioxopiperidin-3-yl)-6,7-dihydropyrrolo[3,4-f]isoindole-1,3(2H,5H)-dione] | – | – | < 10000 nM | < 1000 nM | – | – | – |
| CC(=O)N1CCc2c(c(N3CCCc4cc(-c5cnn(C)c5)c(C(F)F)cc43)nn2C2CCC(N3Cc4cc5c(cc4C3)C(=O)N(C3CCC(=O)NC3=O)C5=O)CC2)C1 (stereo not drawn) [CP-037, 6-(4-(5-acetyl-3-(7-(difluoromethyl)-6-(1-methyl-1H-pyrazol-4-yl)-3,4-dihydroquinolin-1(2H)-yl)-4,5,6,7-tetrahydro-1H-pyrazolo[4,3-c]pyridin-1-yl)cyclohexyl)-2-(2,6-dioxopiperidin-3-yl)-6,7-dihydropyrrolo[3,4-f]isoindole-1,3(2H,5H)-dione] | – | – | < 100 nM | < 100 nM | – | – | – |
| CC(=O)N1CCc2c(c(N3CCCc4cc(-c5cnn(C)c5)c(C(F)F)cc43)nn2C2CCC(N3CC4(Cc5cc6c(cc5C4)C(=O)N(C4CCC(=O)NC4=O)C6=O)C3)CC2)C1 (stereo not drawn) [CP-086, 1-(4-(5-acetyl-3-(7-(difluoromethyl)-6-(1-methyl-1H-pyrazol-4-yl)-3,4-dihydroquinolin-1(2H)-yl)-4,5,6,7-tetrahydro-1H-pyrazolo[4,3-c]pyridin-1-yl)cyclohexyl)-2′-(2,6-dioxopiperidin-3-yl)-5′,7′-dihydro-1′H-spiro[azetidine-3,6′-cyclopenta[f]isoindole]-1′,3′(2′H)-dione] | > 70% | < 10 nM | – | – | < 10 nM | > 70% | – |
| CC(=O)N1CCc2c(c(N3CCCc4cc(-c5cnn(C)c5)c(C(F)F)cc43)nn2C[C@H]2CC[C@H](N3Cc4cc5c(cc4C3)C(=O)N(C3CCC(=O)NC3=O)C5=O)CC2)C1 (relative stereo) [CP-039, 6-(-4-((5-acetyl-3-(7-(difluoromethyl)-6-(1-methyl-1H-pyrazol-4-yl)-3,4-dihydroquinolin-1(2H)-yl)-4,5,6,7-tetrahydro-1H-pyrazolo[4,3-c]pyridin-1-yl)methyl)cyclohexyl)-2-(2,6-dioxopiperidin-3-yl)-6,7-dihydropyrrolo[3,4-f]isoindole-1,3(2H,5H)-dione] | – | – | < 1000 nM | < 100 nM | – | – | – |
| CC(=O)N1CCc2c(c(N3CCCc4cc(-c5cnn(C)c5)c(C(F)F)cc43)nn2C2CCC(CCN3Cc4cc5c(cc4C3)C(=O)N(C3CCC(=O)NC3=O)C5=O)CC2)C1 (stereo not drawn) [CP-044, 6-(2-(4-(5-acetyl-3-(7-(difluoromethyl)-6-(1-methyl-1H-pyrazol-4-yl)-3,4-dihydroquinolin-1(2H)-yl)-4,5,6,7-tetrahydro-1H-pyrazolo[4,3-c]pyridin-1-yl)cyclohexyl)ethyl)-2-(2,6-dioxopiperidin-3-yl)-6,7-dihydropyrrolo[3,4-f]isoindole-1,3(2H,5H)-dione] | – | – | < 100 nM | < 100 nM | – | – | – |
